Measurements as given in the NIST ThermoML archive (doi:10.1016/j.jct.2018.02.013).

Key:
[1] = molar heat capacity at constant pressure; wn = mass fraction of the nth substance listed; details: 101 kPa, Liquid, Small sample (50 mg) DSC
[2] = wn = mass fraction of the nth substance listed; details: 101 kPa, Liquid; for mass density: Vibrating tube method; for viscosity: Cone and plate viscometry; for thermal conductivity: transient hot wire; for electrical conductivity: Direct current cell with electrodes

CCCCCCCCCC(=O)[O-].CCCCCCCCCCCCCC[P+](CCCCCC)(CCCCCC)CCCCCC [trihexyltetradecylphosphonium decanoate] + O
w2 = 0.1415
Details	electrical conductivity [S/m]	mass density [kg/m3]	molar heat capacity at constant pressure [J/K/mol]	thermal conductivity [W/m/K]	viscosity [mPa·s]
[1], 298.15 K	–	–	313.81	–	–
[1], 303.15 K	–	–	319.48	–	–
[1], 308.15 K	–	–	323.73	–	–
[1], 313.15 K	–	–	326.79	–	–
[1], 318.15 K	–	–	328.54	–	–
[1], 323.15 K	–	–	332.14	–	–
[1], 328.15 K	–	–	335.3	–	–
[1], 333.15 K	–	–	338.57	–	–
[1], 338.15 K	–	–	341.41	–	–
[1], 343.15 K	–	–	344.47	–	–
[1], 348.15 K	–	–	348.72	–	–
[1], 353.15 K	–	–	351.99	–	–
[1], 358.15 K	–	–	355.6	–	–
[1], 363.15 K	–	–	360.72	–	–
[2], 298.15 K	–	899.1	–	–	–
[2], 298.2 K	–	–	–	–	91.87
[2], 298.55 K	–	–	–	0.1861	–
[2], 299.2 K	0.03	–	–	–	–
[2], 303.15 K	–	895.8	–	–	–
[2], 303.2 K	–	–	–	–	76.66
[2], 303.6 K	0.0369	–	–	–	–
[2], 307.51 K	–	–	–	0.1849	–
[2], 308.2 K	–	–	–	–	64.23
[2], 308.8 K	0.0436	–	–	–	–
[2], 313.15 K	–	889	–	–	–
[2], 313.2 K	0.0524	–	–	–	53.34
[2], 317.84 K	–	–	–	0.1829	–
[2], 318.2 K	–	–	–	–	45
[2], 318.8 K	0.0639	–	–	–	–
[2], 323.15 K	–	882.3	–	–	–
[2], 323.2 K	–	–	–	–	37.98
[2], 323.6 K	0.0733	–	–	–	–
[2], 328.2 K	–	–	–	–	32.86
[2], 328.68 K	–	–	–	0.1809	–
[2], 328.8 K	0.0865	–	–	–	–
[2], 333.15 K	–	875.4	–	–	–
[2], 333.2 K	0.1	–	–	–	28.28
[2], 337.66 K	–	–	–	0.1799	–
[2], 338.2 K	–	–	–	–	24.62
[2], 338.8 K	0.118	–	–	–	–
[2], 343.15 K	–	868.2	–	–	–
[2], 343.2 K	–	–	–	–	21.4
[2], 343.8 K	0.132	–	–	–	–
[2], 347.13 K	–	–	–	0.1785	–
[2], 348.2 K	–	–	–	–	18.91
[2], 348.9 K	0.156	–	–	–	–
[2], 353.15 K	–	860.8	–	–	–
[2], 353.2 K	–	–	–	–	17.1
[2], 358.2 K	–	–	–	0.1762	15.4
[2], 363.15 K	–	853.7	–	–	–
[2], 363.2 K	–	–	–	–	13.95
[2], 368.2 K	–	–	–	–	12.08

CCCCCCCC(=O)[O-].CCCCCCCCCCCCCC[P+](CCCCCC)(CCCCCC)CCCCCC [trihexyl(tetradecyl)phosphonium octanoate] + O
w2 = 0.1478
Details	electrical conductivity [S/m]	mass density [kg/m3]	molar heat capacity at constant pressure [J/K/mol]	thermal conductivity [W/m/K]	viscosity [mPa·s]
[1], 298.15 K	–	–	319.61	–	–
[1], 303.15 K	–	–	322.43	–	–
[1], 308.15 K	–	–	325.15	–	–
[1], 313.15 K	–	–	326.51	–	–
[1], 318.15 K	–	–	329.23	–	–
[1], 323.15 K	–	–	332.16	–	–
[1], 328.15 K	–	–	335.5	–	–
[1], 333.15 K	–	–	338.32	–	–
[1], 338.15 K	–	–	340.52	–	–
[1], 343.15 K	–	–	342.51	–	–
[1], 348.15 K	–	–	345.96	–	–
[1], 353.15 K	–	–	350.45	–	–
[1], 358.15 K	–	–	353.8	–	–
[1], 363.15 K	–	–	358.19	–	–
[2], 298.15 K	–	901.5	–	–	–
[2], 298.2 K	–	–	–	–	82.71
[2], 299 K	0.0415	–	–	–	–
[2], 299.13 K	–	–	–	0.1872	–
[2], 303.15 K	–	898.1	–	–	–
[2], 303.2 K	–	–	–	–	70.08
[2], 304.4 K	0.051	–	–	–	–
[2], 307.9 K	–	–	–	0.1852	–
[2], 308.2 K	–	–	–	–	58.36
[2], 308.8 K	0.0603	–	–	–	–
[2], 313.15 K	–	891.3	–	–	–
[2], 313.2 K	–	–	–	–	48.63
[2], 313.6 K	0.0724	–	–	–	–
[2], 318.01 K	–	–	–	0.1831	–
[2], 318.2 K	0.0882	–	–	–	41.34
[2], 323.15 K	–	884.7	–	–	–
[2], 323.2 K	–	–	–	–	35.7
[2], 323.8 K	0.101	–	–	–	–
[2], 327.85 K	–	–	–	0.1821	–
[2], 328.2 K	–	–	–	–	30.82
[2], 328.6 K	0.119	–	–	–	–
[2], 333.15 K	–	877.7	–	–	–
[2], 333.2 K	–	–	–	–	26.32
[2], 333.4 K	0.139	–	–	–	–
[2], 337.66 K	–	–	–	0.1801	–
[2], 338.1 K	0.164	–	–	–	–
[2], 338.2 K	–	–	–	–	22.53
[2], 343.15 K	–	870.8	–	–	–
[2], 343.2 K	–	–	–	–	19.93
[2], 343.5 K	0.182	–	–	–	–
[2], 347.48 K	–	–	–	0.1791	–
[2], 348.2 K	–	–	–	–	17.29
[2], 349.7 K	0.215	–	–	–	–
[2], 353.15 K	–	863.8	–	–	–
[2], 353.2 K	–	–	–	–	15.03
[2], 358 K	–	–	–	0.1771	–
[2], 358.2 K	–	–	–	–	13.44
[2], 363.15 K	–	857.1	–	–	–
[2], 363.2 K	–	–	–	–	11.86
[2], 368.2 K	–	–	–	–	10.87

CCCC(=O)[O-].CCCCCCCCCCCCCC[P+](CCCCCC)(CCCCCC)CCCCCC [trihexyl(tetradecyl)phosphonium butyrate] + O
w2 = 0.1668
Details	electrical conductivity [S/m]	mass density [kg/m3]	molar heat capacity at constant pressure [J/K/mol]	thermal conductivity [W/m/K]	viscosity [mPa·s]
[1], 298.15 K	–	–	316.94	–	–
[1], 303.15 K	–	–	319.46	–	–
[1], 308.15 K	–	–	321.6	–	–
[1], 313.15 K	–	–	324.22	–	–
[1], 318.15 K	–	–	327.2	–	–
[1], 323.15 K	–	–	330.19	–	–
[1], 328.15 K	–	–	333.45	–	–
[1], 333.15 K	–	–	336.44	–	–
[1], 338.15 K	–	–	340.64	–	–
[1], 343.15 K	–	–	344.65	–	–
[1], 348.15 K	–	–	348.29	–	–
[1], 353.15 K	–	–	351.74	–	–
[1], 358.15 K	–	–	356.22	–	–
[1], 363.15 K	–	–	360.42	–	–
[2], 298.15 K	–	907.8	–	0.189	–
[2], 298.2 K	–	–	–	–	61.46
[2], 302.4 K	0.11	–	–	–	–
[2], 303.15 K	–	904.6	–	–	–
[2], 303.2 K	–	–	–	–	48.17
[2], 303.9 K	0.118	–	–	–	–
[2], 307.87 K	–	–	–	0.188	–
[2], 308.2 K	–	–	–	–	38.54
[2], 308.4 K	0.14	–	–	–	–
[2], 313.15 K	–	898.3	–	–	–
[2], 313.2 K	0.168	–	–	–	31.4
[2], 317.99 K	–	–	–	0.1859	–
[2], 318.2 K	–	–	–	–	25.96
[2], 318.8 K	0.205	–	–	–	–
[2], 323.15 K	–	891.9	–	–	–
[2], 323.2 K	0.235	–	–	–	21.94
[2], 327.77 K	–	–	–	0.1848	–
[2], 328.2 K	–	–	–	–	18.8
[2], 328.4 K	0.277	–	–	–	–
[2], 333.15 K	–	885	–	–	–
[2], 333.2 K	–	–	–	–	16.05
[2], 333.4 K	0.322	–	–	–	–
[2], 338.18 K	–	–	–	0.1828	–
[2], 338.2 K	–	–	–	–	13.85
[2], 338.8 K	0.38	–	–	–	–
[2], 343.15 K	–	877.8	–	–	–
[2], 343.2 K	0.423	–	–	–	11.94
[2], 347.9 K	–	–	–	0.1818	–
[2], 348.2 K	–	–	–	–	10.37
[2], 349.7 K	0.499	–	–	–	–
[2], 353.15 K	–	870.5	–	–	–
[2], 353.2 K	–	–	–	–	9.056
[2], 358.2 K	–	–	–	0.1808	8.136
[2], 363.15 K	–	863.9	–	–	–
[2], 363.2 K	–	–	–	–	7.26
[2], 368.2 K	–	–	–	–	7.063
